# Source: patent US20180071317A1, “USE OF AGENTS THAT ALTER THE PERITUMORAL ENVIRONMENT FOR THE TREATMENT OF CANCER” (SERVICIO ANDALUZ DE SALUD, priority 2011, published 2018)
# Experiments:
# [1] = test system: fibroblasts of tumors produced by human rhabdomyosarcoma tumor line (A-204); assay: Marker expression (IHC) in fibroblasts of tumor or peritumoral area, mouse model, A-204; assay type: in vivo; details: A-204 tumors in mice, 30 mg/kg/day oral, 7 days
# Protocol: In vitro tests conducted in Example 5 are now carried out in an experimental model in mice in vivo. […] Subsequently, the expression in fibroblasts tumoral and peritumoral area of molecular markers associated with progression and maintenance of tumors: TGF-α, TGF-β1, TGF-β2, TGF-β3, MMP-7, MMP-11, MMP-14 were analyzed by immunohistochemistry.
# Were injected with 2×10^7 cells tumors (corresponding, in each case to each of the tumor types as specified in Table 9) in 200 of PBS subcutaneously μl. […] Mice were randomized into two groups when the tumors reached a volume of 75 mm^3 One group was treated with non-peptide receptor antagonists NK1 and the other with placebo 200μ1. […] Tumors and samples of non-neoplastic stromal areas remote from the tumor were halved, formalin fixed (4%) and then were included in paraffin blocks for analysis by immunohistochemistry.
# The expression on fibroblast cells obtained in the animal model was analyzed by immunohistochemistry, of the above markers: TGF-α, TGF-β1, TGF-β2, TGF-β3, MMP-7, MMP-1 1, MMP-14MP-14. Tables 32 to 35 depict the type of label used and the average percentage of fibroblasts present in non-tumor areas, tumor and peritumoral (±SD) which were expressing the marker shown in each of the tumor types developed from of the different cell lines used. This process was realized in mice treated with non-peptide antagonists of NK1 receptor and in untreated animals (control).
# [2] = test system: fibroblasts (PHF) co-cultured with tumor cells of human Burkitt lymphoma (CA-46); assay: Marker expression (IHC) in PHF co-cultured with CA-46 tumor cells; assay type: cell-based;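 further: percentage of PHF fibroblasts positive for each marker, cultures grown in fresh human plasma from a healthy donor, six replicates, compared with fibroblasts cultured alone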
# Protocol: All cultures were maintained 48 hours, following which the same cells were included in paraffin blocks for subsequent analysis of the expression of different markers by immunohistochemistry (see Example 1). The primary antibodies used to perform immunohistochemical assays and their concentration are detailed in Example 2. All experiments were carried out sixfold. Analyzed markers in fibroblast cells (stromal cells) were: TGF-α, TGF-β1, TGF-β2, TGF-β3, SPARC, MMP-3, MMP-7, MMP-9, MMP-11, MMP-13 and MMP-14.
# [3] = test system: fibroblasts (PHF) co-cultured with human neuroblastoma tumor cells (KELLY); assay: Marker expression (IHC) in PHF co-cultured with KELLY tumor cells; assay type: cell-based;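 further: Co-cultures grown on healthy-donor human blood plasma, run in six replicates, value is percentage of fibroblasts positive for each marker, compared with fibroblasts cultured alone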
# Protocol: (§1) All cultures were maintained 48 hours, following which the same cells were included in paraffin blocks for subsequent analysis of the expression of different markers by immunohistochemistry (see Example 1). […] All experiments were carried out sixfold. Analyzed markers in fibroblast cells (stromal cells) were: TGF-α, TGF-β1, TGF-β2, TGF-β3, SPARC, MMP-3, MMP-7, MMP-9, MMP-11, MMP-13 and MMP-14.
# [4] = test system: fibroblasts (PHF) co-cultured with tumor cells of human cervix carcinoma (KB); assay: Marker expression (IHC) in PHF co-cultured with KB tumor cells; assay type: cell-based; details: co-culture with KB, 48 h;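 further: percentage of PHF fibroblasts showing expression of each marker, cultured in fresh blood plasma from a healthy human donor, six replicates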
# Protocol: as §1
# [5] = test system: tumors from the tumor cell lines of Table 9; assay: Mean tumor volume in nude mice injected subcutaneously with human tumor cells; details: 30 mg/kg/day oral, 7 days
# [6] = test system: fibroblasts (PHF) co-cultured with tumor cells of lung carcinoma (A-427); assay: Marker expression (IHC) in PHF co-cultured with A-427 tumor cells; assay type: cell-based, human; details: co-culture with A-427 lung carcinoma, 48 h;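 further: cultures grown in human blood plasma from a healthy donor, value is the percentage of fibroblasts positive for each marker, six replicates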
# Protocol: as §1
# [7] = PHF co-cultured with CA-46 + SP + NK1 antagonist
# [8] = PHF co-cultured with KELLY + SP + NK1 antagonist
# [9] = PHF co-cultured with CA-46 + SP
# [10] = PHF co-cultured with KELLY + SP
structure (smiles),measurement,setting,value
CC(=O)N1CCN([C@H]2CCN(C(=O)N(C)[C@H](C)c3cc(C(F)(F)F)cc(C(F)(F)F)c3)[C@@H](c3ccc(F)cc3C)C2)CC1 [Casopitant],fibroblasts expressing MMP-7,[1],0%
same,fibroblasts expressing MMP-11,[1],0%
same,fibroblasts expressing MMP-14,[1],0%
same,fibroblasts expressing TGF-α,[1],0%
same,fibroblasts expressing TGF-β 1,[1],0%
same,fibroblasts expressing TGF-β 2,[1],0%
same,fibroblasts expressing TGF-β 3,[1],0%
same,cells expressing MMP-3,[2]; [7],0%
same,cells expressing MMP-7,[2]; [7],0%
same,cells expressing MMP-9,[2]; [7],0%
same,cells expressing MMP-11,[2]; [7],0%
same,cells expressing MMP-13,[2]; [7],0%
same,cells expressing MMP-14,[2]; [7],0%
same,cells expressing SPARC,[2]; [7],0%
same,cells expressing TGF-α,[2]; [7],0%
same,cells expressing TGF-β1,[2]; [7],0%
same,cells expressing TGF-β2,[2]; [7],0%
same,cells expressing TGF-β3,[2]; [7],0%
same,cells expressing MMP-3,[3]; [8],0%
same,cells expressing MMP-7,[3]; [8],0%
same,cells expressing MMP-9,[3]; [8],0%
same,cells expressing MMP-11,[3]; [8],0%
same,cells expressing MMP-13,[3]; [8],0%
same,cells expressing MMP-14,[3]; [8],0%
same,cells expressing SPARC,[3]; [8],0%
same,cells expressing TGF-α,[3]; [8],0%
same,cells expressing TGF-β1,[3]; [8],0%
same,cells expressing TGF-β2,[3]; [8],0%
same,cells expressing TGF-β3,[3]; [8],0%
same,PHF cells expressing MMP-3,[4]; SP 1 μM + antagonist 1 μM,0%
same,PHF cells expressing MMP-7,[4]; SP 1 μM + antagonist 1 μM,0%
same,PHF cells expressing MMP-9,[4]; SP 1 μM + antagonist 1 μM,0%
same,PHF cells expressing MMP-11,[4]; SP 1 μM + antagonist 1 μM,0%
same,PHF cells expressing MMP-13,[4]; SP 1 μM + antagonist 1 μM,0%
same,PHF cells expressing MMP-14,[4]; SP 1 μM + antagonist 1 μM,0%
same,PHF cells expressing SPARC,[4]; SP 1 μM + antagonist 1 μM,0%
same,PHF cells expressing TGF-α,[4]; SP 1 μM + antagonist 1 μM,0%
same,PHF cells expressing TGF-β1,[4]; SP 1 μM + antagonist 1 μM,0%
same,PHF cells expressing TGF-β2,[4]; SP 1 μM + antagonist 1 μM,0%
same,PHF cells expressing TGF-β3,[4]; SP 1 μM + antagonist 1 μM,0%
same,Mean tumor volume,[5]; B lymphoblastic leukemia (peripheral human B lymphoblastoid cells) SD1,109 ± 8
same,Mean tumor volume,[5]; Carcinoma of human non-small cell lung COR-L23,119 ± 5
same,Mean tumor volume,[5]; Carcinoma of human non-small cell lung H-1963,97 ± 3
same,Mean tumor volume,[5]; Carcinoma of human non-small cell lung HCC-44,101 ± 8
same,Mean tumor volume,[5]; Carcinoma of human small cell lung H-209,114 ± 7
same,Mean tumor volume,[5]; Carcinoma of human urinary bladder 5637,100 ± 2
same,Mean tumor volume,[5]; Human B lymphoma BC-1,83 ± 11
same,Mean tumor volume,[5]; Human Burkitt lymphoma CA-46,94 ± 9
same,Mean tumor volume,[5]; Human Fibrosarcoma HT-1080,89 ± 4
same,Mean tumor volume,[5]; Human Hodgkin lymphoma KM-H2,86 ± 7
same,Mean tumor volume,[5]; Human Rhabdomyosarcoma A-204,98 ± 5
same,Mean tumor volume,[5]; Human T-cell leukemia/NK YT,102 ± 7
same,Mean tumor volume,[5]; Human T-lymphoma DERL human Hodgkin 7Linfoma KM-H2,97 ± 6
same,Mean tumor volume,[5]; Human breast adenocarcinoma humano MCF-7,86 ± 8
same,Mean tumor volume,[5]; Human breast carcinoma MDA-MB-468,77 ± 9
same,Mean tumor volume,[5]; Human breast carcinoma MT-3,87 ± 12
same,Mean tumor volume,[5]; Human choriocarcinoma AC-1M32,84 ± 1
same,Mean tumor volume,[5]; Human colon carcinoma SW-403,78 ± 7
same,Mean tumor volume,[5]; Human endometrial carcinoma AN3-CA,82 ± 3
same,Mean tumor volume,[5]; Human endometrial stromal sarcoma ESS-1,101 ± 5
same,Mean tumor volume,[5]; Human folicular thyroid carcinoma TT2609-C02,112 ± 5
same,Mean tumor volume,[5]; Human gastric adenocarcinoma 23132/87,83 ± 4
same,Mean tumor volume,[5]; Human glioma GAMG,102 ± 4
same,Mean tumor volume,[5]; Human lung carcinoma A-427,102 ± 8
same,Mean tumor volume,[5]; Human lung carcinoma DV-90,99 ± 5
same,Mean tumor volume,[5]; Human lymphoblastic leukemia T BE-13,101 ± 4
same,Mean tumor volume,[5]; Human malignant fibrous histiocytoma U-2197,107 ± 2
same,Mean tumor volume,[5]; Human melanoma MEL HO,102 ± 9
same,Mean tumor volume,[5]; Human multiple myeloma COLO-677,104 ± 6
same,Mean tumor volume,[5]; Human neuroblastoma KELLY,112 ± 5
same,Mean tumor volume,[5]; Human neuroblastoma bone marrow SKN-BE 2,103 ± 4
same,Mean tumor volume,[5]; Human osteosarcoma CAL-72,106 ± 7
same,Mean tumor volume,[5]; Human ovarian adenocarcinoma EFO-27,88 ± 6
same,Mean tumor volume,[5]; Human ovarian carcinoma COLO-704,97 ± 6
same,Mean tumor volume,[5]; Human pancretic adenocarcinoma CAPAN-1,73 ± 8
same,Mean tumor volume,[5]; Human pancretic adenocarcinoma PA-TU 8902,75 ± 6
same,Mean tumor volume,[5]; Human papillary thyroid carcinoma metastasizing B-CPAP,106 ± 4
same,Mean tumor volume,[5]; Human prostate carcinoma 22RV1,98 ± 4
same,Mean tumor volume,[5]; Human retinoblastoma WERI-Rb-1,101 ± 5
same,Mean tumor volume,[5]; Human thyroid carcinoma 8505C,99 ± 9
same,Mean tumor volume,[5]; Human uterine cervix carcinoma KB,112 ± 1
same,Mean tumor volume,"[5]; Melanoma humano, metástasis en ganglio linfático COLO 858",99 ± 5
same,Mean tumor volume,[5]; Sarcoma human Edwing MHH-ES-1,97 ± 9
same,Mean tumor volume,[5]; Transitional Carcinoma of human urinary bladder RT-4,101 ± 3
same,PHF cells expressing MMP-3,[6]; SP 1 μM + antagonist 1 μM,0%
same,PHF cells expressing MMP-7,[6]; SP 1 μM + antagonist 1 μM,0%
same,PHF cells expressing MMP-9,[6]; SP 1 μM + antagonist 1 μM,0%
same,PHF cells expressing MMP-11,[6]; SP 1 μM + antagonist 1 μM,0%
same,PHF cells expressing MMP-13,[6]; SP 1 μM + antagonist 1 μM,0%
same,PHF cells expressing MMP-14,[6]; SP 1 μM + antagonist 1 μM,0%
same,PHF cells expressing SPARC,[6]; SP 1 μM + antagonist 1 μM,0%
same,PHF cells expressing TGF-α,[6]; SP 1 μM + antagonist 1 μM,0%
same,PHF cells expressing TGF-β1,[6]; SP 1 μM + antagonist 1 μM,0%
same,PHF cells expressing TGF-β2,[6]; SP 1 μM + antagonist 1 μM,0%
same,PHF cells expressing TGF-β3,[6]; SP 1 μM + antagonist 1 μM,0%
CSCC[C@H](NC(=O)[C@H](CC(C)C)NC(=O)CNC(=O)[C@H](Cc1ccccc1)NC(=O)[C@H](Cc1ccccc1)NC(=O)[C@H](CCC(N)=O)NC(=O)[C@H](CCC(N)=O)NC(=O)[C@@H]1CCCN1C(=O)[C@H](CCCCN)NC(=O)[C@@H]1CCCN1C(=O)[C@@H](N)CCCNC(=N)N)C(N)=O [SP],cells expressing MMP-3,[2]; [9],63.4 ± 4.3%
same,cells expressing MMP-7,[2]; [9],66.1 ± 3.8%
same,cells expressing MMP-9,[2]; [9],72.3 ± 4.4%
same,cells expressing MMP-11,[2]; [9],67.4 ± 5.8%
same,cells expressing MMP-13,[2]; [9],55 ± 6.4%
same,cells expressing MMP-14,[2]; [9],59.1 ± 6.3%
same,cells expressing SPARC,[2]; [9],77 ± 4.2%
same,cells expressing TGF-α,[2]; [9],61.4 ± 5.1%
same,cells expressing TGF-β1,[2]; [9],63.4 ± 4.1%
same,cells expressing TGF-β2,[2]; [9],60.5 ± 5.1%
same,cells expressing TGF-β3,[2]; [9],71 ± 4.56%
same,cells expressing MMP-3,[3]; [10],45.4 ± 4.7%
same,cells expressing MMP-7,[3]; [10],57.4 ± 3.8%
same,cells expressing MMP-9,[3]; [10],51.2 ± 2.4%
same,cells expressing MMP-11,[3]; [10],29.4 ± 4.8%
same,cells expressing MMP-13,[3]; [10],44.3 ± 4.5%
same,cells expressing MMP-14,[3]; [10],51.2 ± 4.2%
same,cells expressing SPARC,[3]; [10],46.5 ± 4.2%
same,cells expressing TGF-α,[3]; [10],42.4 ± 3.1%
same,cells expressing TGF-β1,[3]; [10],36.5 ± 2.1%
same,cells expressing TGF-β2,[3]; [10],42.2 ± 2.2%
same,cells expressing TGF-β3,[3]; [10],43.4 ± 2.3%
same,PHF cells expressing MMP-3,[4]; SP 1 μM,42.6 ± 1.8%
same,PHF cells expressing MMP-7,[4]; SP 1 μM,57.5 ± 5.8%
same,PHF cells expressing MMP-9,[4]; SP 1 μM,57.3 ± 6.4%
same,PHF cells expressing MMP-11,[4]; SP 1 μM,36.4 ± 6.8%
same,PHF cells expressing MMP-13,[4]; SP 1 μM,45.4 ± 3.7%
same,PHF cells expressing MMP-14,[4]; SP 1 μM,51.6 ± 3.5%
same,PHF cells expressing SPARC,[4]; SP 1 μM,46.9 ± 1.6%
same,PHF cells expressing TGF-α,[4]; SP 1 μM,33.4 ± 1.1%
same,PHF cells expressing TGF-β1,[4]; SP 1 μM,34.5 ± 1.1%
same,PHF cells expressing TGF-β2,[4]; SP 1 μM,45.6 ± 1.1%
same,PHF cells expressing TGF-β3,[4]; SP 1 μM,44.5 ± 3.1%
same,PHF cells expressing MMP-3,[6]; SP 1 μM,45.5 ± 1.6%
same,PHF cells expressing MMP-7,[6]; SP 1 μM,54.3 ± 2.2%
same,PHF cells expressing MMP-9,[6]; SP 1 μM,55.5 ± 2.4%
same,PHF cells expressing MMP-11,[6]; SP 1 μM,25.5 ± 1.8%
same,PHF cells expressing MMP-13,[6]; SP 1 μM,44.3 ± 2.5%
same,PHF cells expressing MMP-14,[6]; SP 1 μM,45.1 ± 3.5%
same,PHF cells expressing SPARC,[6]; SP 1 μM,47 ± 1.2%
same,PHF cells expressing TGF-α,[6]; SP 1 μM,42.3 ± 2.1%
same,PHF cells expressing TGF-β1,[6]; SP 1 μM,33.4 ± 2.1%
same,PHF cells expressing TGF-β2,[6]; SP 1 μM,40.9 ± 2.1%
same,PHF cells expressing TGF-β3,[6]; SP 1 μM,51.4 ± 1.6%
